pIC50: −log10 of the molar value.

Assay [1] addresses T1, N-lysine methyltransferase SMYD2 (Homo sapiens, UniProt Q9NRG4). Description: Inhibition of FLAG-tagged SMYD2 (unknown origin) expressed in human U2OS cells mediated intracellular p53 methylation incubated for 24 hrs using p53 as substrate by immunofluorescence analysis. The assay is classed as cell-based.
In another assay the test system is KYSE-270. The assay can be described thus: Antitumor activity against human KYSE-270 cells assessed as inhibition of cell proliferation incubated for 3 to 7 days by CellTiter-Glo assay. The format is functional, cell-based.
Assay [2] is described as follows: Antitumor activity against human HCC cells assessed as inhibition of cell proliferation incubated for 3 to 7 days by CellTiter-Glo assay. The assay is classed as functional, cell-based.
Assay [3] in a line: Antitumor activity against human BC cells assessed as inhibition of cell proliferation incubated for 3 to 7 days by CellTiter-Glo assay. The assay is classed as functional, cell-based.
The test system of the next assay is KYSE-150 cell line. Description: Antitumor activity against human KYSE-150 cells assessed as inhibition of cell proliferation incubated for 3 to 7 days by CellTiter-Glo assay. The format is functional, cell-based.
Assay [4] deals with T1, N-lysine methyltransferase SMYD2. The assay can be described thus: Inhibition of human SMYD2 overexpressing human KYSE-150 cells assessed as SMYD2 assessed as reduction in BTF3 monomethylation by Western blot analysis. The format is cell-based, KYSE-150 cell line.

T1 sequence (Q9NRG4 whole entry): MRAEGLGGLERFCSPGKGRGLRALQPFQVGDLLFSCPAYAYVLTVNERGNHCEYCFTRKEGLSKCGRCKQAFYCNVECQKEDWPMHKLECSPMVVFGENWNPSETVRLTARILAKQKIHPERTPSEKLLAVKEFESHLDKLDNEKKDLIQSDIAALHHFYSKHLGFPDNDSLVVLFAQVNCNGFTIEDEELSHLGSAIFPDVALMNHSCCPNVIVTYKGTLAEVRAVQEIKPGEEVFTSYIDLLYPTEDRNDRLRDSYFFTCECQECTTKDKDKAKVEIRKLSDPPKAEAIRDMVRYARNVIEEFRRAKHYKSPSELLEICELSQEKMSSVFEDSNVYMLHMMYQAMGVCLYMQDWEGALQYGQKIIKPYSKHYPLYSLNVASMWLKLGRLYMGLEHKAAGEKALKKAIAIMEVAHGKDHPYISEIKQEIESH

In turn, `O=C1COc2c(CCNCCN(C(=O)CCNCCc3ccc(Cl)c(Cl)c3)C3CCCCC3)ccc(O)c2N1` showed a pIC50 in assay [1] above 4.00.
Consider `Cc1cn(CCN2CCN(c3ccccc3-c3cc(C#N)cc(C(=O)NCCCN4CCCC4)c3)CC2)c2ccccc12`, for which the negative logarithm of the IC50 (pIC50) (in the assay with KYSE-270; in assay [2]; in assay [3]; with KYSE-150 cell line) was 5.82 each time.
Turning to `O=C(NC1CN(Cc2cnn(Cc3ccc(Cl)cc3)c2)C1)c1cn(C2CC2)nn1`, in assay [4], the pIC50 was 8.54.

For the origin of these results see ChEMBL document CHEMBL5113510, “Protein Lysine Methyltransferase SMYD2: A Promising Small Molecule Target for Cancer Therapy” (J Med Chem, 2022).
